We go through 5 compounds from ChEMBL document CHEMBL1150477, “Development of angiotensin II antagonists with equipotent affinity for human AT1 and AT2 receptor subtypes” (Bioorg Med Chem Lett, 1994).

The IC50 is the concentration that gives 50% inhibition.

Molecules are shown by their SMILES. Changes are numbered by the printed parent chain.

One assay has as its target T1, Type-2 angiotensin II receptor (Rattus norvegicus, UniProt P35351).
T1 sequence (P35351 whole entry): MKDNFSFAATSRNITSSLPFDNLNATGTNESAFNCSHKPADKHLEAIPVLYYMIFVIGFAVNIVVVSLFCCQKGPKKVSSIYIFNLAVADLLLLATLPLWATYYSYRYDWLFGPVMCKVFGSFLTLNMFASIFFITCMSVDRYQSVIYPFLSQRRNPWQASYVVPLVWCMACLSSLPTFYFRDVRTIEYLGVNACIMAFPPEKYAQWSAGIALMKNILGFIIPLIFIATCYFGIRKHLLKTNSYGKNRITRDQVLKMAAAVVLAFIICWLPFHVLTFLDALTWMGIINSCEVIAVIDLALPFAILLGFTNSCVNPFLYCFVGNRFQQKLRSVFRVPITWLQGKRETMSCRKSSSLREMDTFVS
In words: […] inhibitory concentration against AT2 receptor of rat adrenal membrane.
For `CCc1nc2ccc(NC(=O)N(C)C(C)C)cc2c(=O)n1Cc1ccc(-c2ccccc2S(=O)(=O)NC(=O)OCC=C(C)C)cc1F`, half-maximal inhibition (IC50) required 1.04 nM.
Same read-out and setting: to `Cc1nc2ccc(NC(=O)NC(C)C)cc2c(=O)n1Cc1ccc(-c2ccccc2S(=O)(=O)NC(=O)OCCC(C)C)cc1F` belongs 0.63 nM.
Still for that read-out and setting: the result for `CCCc1nc2ccc(NC(=O)NC(C)C)cc2c(=O)n1Cc1ccc(-c2ccccc2S(=O)(=O)NC(=O)c2ccc(CC)cc2F)cc1F` reads 0.21 nM; that for `Cc1nc2ccc(NC(=O)N(C)C)cc2c(=O)n1Cc1ccc(-c2ccccc2S(=O)(=O)NC(=O)OCCC2CC2)cc1F`, 2.4 nM; that for `CCc1nc2ccc(NC(=O)c3ccccn3)cc2c(=O)n1Cc1ccc(-c2ccccc2S(=O)(=O)NC(=O)OCCC(C)C)cc1F`, 0.63 nM.

For a further assay, the target named is Angiotensin II receptor (Homo sapiens) (UniProt P30556+P50052). In words: Ratio of inhibitory concentration against AT2 receptor and AT1 receptor of human adrenal membrane.
Sequence of Angiotensin II receptor (Homo sapiens) (P30556 whole entry, looked up, one chain of several): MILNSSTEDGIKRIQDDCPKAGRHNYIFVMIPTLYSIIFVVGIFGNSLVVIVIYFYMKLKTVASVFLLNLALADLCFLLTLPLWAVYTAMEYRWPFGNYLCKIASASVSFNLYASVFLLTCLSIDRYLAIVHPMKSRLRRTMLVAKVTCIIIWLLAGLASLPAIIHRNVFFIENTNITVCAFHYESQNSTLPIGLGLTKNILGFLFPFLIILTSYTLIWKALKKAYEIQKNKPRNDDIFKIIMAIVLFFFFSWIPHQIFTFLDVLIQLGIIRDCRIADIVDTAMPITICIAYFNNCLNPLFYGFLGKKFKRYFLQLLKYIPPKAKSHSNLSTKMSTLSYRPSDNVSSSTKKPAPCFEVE
Regarding `CCc1nc2ccc(NC(=O)N(C)C(C)C)cc2c(=O)n1Cc1ccc(-c2ccccc2S(=O)(=O)NC(=O)OCC=C(C)C)cc1F`, the Ratio is 0.62.
On the same count and under the same terms, to `Cc1nc2ccc(NC(=O)NC(C)C)cc2c(=O)n1Cc1ccc(-c2ccccc2S(=O)(=O)NC(=O)OCCC(C)C)cc1F` belongs 0.93; to `CCCc1nc2ccc(NC(=O)NC(C)C)cc2c(=O)n1Cc1ccc(-c2ccccc2S(=O)(=O)NC(=O)c2ccc(CC)cc2F)cc1F`, 5.3.
Same read-out and setting: to `Cc1nc2ccc(NC(=O)N(C)C)cc2c(=O)n1Cc1ccc(-c2ccccc2S(=O)(=O)NC(=O)OCCC2CC2)cc1F` belongs 0.96; to `CCc1nc2ccc(NC(=O)c3ccccn3)cc2c(=O)n1Cc1ccc(-c2ccccc2S(=O)(=O)NC(=O)OCCC(C)C)cc1F`, 0.47.

The next assay concerns the target Angiotensin II receptor (Rattus norvegicus) (UniProt P29089+P25095+P35351). In words: Ratio of inhibitory concentration against AT2 receptor and AT1 receptor of rat adrenal membrane.
Consider `CCc1nc2ccc(NC(=O)N(C)C(C)C)cc2c(=O)n1Cc1ccc(-c2ccccc2S(=O)(=O)NC(=O)OCC=C(C)C)cc1F`, for which the Ratio turned out to be 2.7.
Same read-out and setting: to `Cc1nc2ccc(NC(=O)NC(C)C)cc2c(=O)n1Cc1ccc(-c2ccccc2S(=O)(=O)NC(=O)OCCC(C)C)cc1F` belongs 1.2; to `CCCc1nc2ccc(NC(=O)NC(C)C)cc2c(=O)n1Cc1ccc(-c2ccccc2S(=O)(=O)NC(=O)c2ccc(CC)cc2F)cc1F`, 2.3.
Take `Cc1nc2ccc(NC(=O)N(C)C)cc2c(=O)n1Cc1ccc(-c2ccccc2S(=O)(=O)NC(=O)OCCC2CC2)cc1F`: the Ratio stood at 1.2.
Regarding `CCc1nc2ccc(NC(=O)c3ccccn3)cc2c(=O)n1Cc1ccc(-c2ccccc2S(=O)(=O)NC(=O)OCCC(C)C)cc1F`, the Ratio is 2.5.

The target in the next assay is T2, Type-2 angiotensin II receptor (Homo sapiens, UniProt P50052).
T2 sequence (P50052 whole entry): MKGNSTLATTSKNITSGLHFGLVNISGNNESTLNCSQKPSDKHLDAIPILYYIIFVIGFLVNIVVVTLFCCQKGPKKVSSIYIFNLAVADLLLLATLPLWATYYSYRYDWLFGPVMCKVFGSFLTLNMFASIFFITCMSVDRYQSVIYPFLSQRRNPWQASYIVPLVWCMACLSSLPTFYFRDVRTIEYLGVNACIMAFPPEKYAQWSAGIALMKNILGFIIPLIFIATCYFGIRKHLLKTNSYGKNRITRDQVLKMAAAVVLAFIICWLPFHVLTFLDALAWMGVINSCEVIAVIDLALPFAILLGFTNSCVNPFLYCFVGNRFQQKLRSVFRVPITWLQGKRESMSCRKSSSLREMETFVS
In words: […] inhibitory concentration against AT2 receptor of human adrenal membrane.
Consider `CCc1nc2ccc(NC(=O)N(C)C(C)C)cc2c(=O)n1Cc1ccc(-c2ccccc2S(=O)(=O)NC(=O)OCC=C(C)C)cc1F`, for which the 50% inhibitory concentration (IC50) was 9.3 nM. This lies in the single-digit nanomolar range.
Still for that read-out and setting: the result for `Cc1nc2ccc(NC(=O)NC(C)C)cc2c(=O)n1Cc1ccc(-c2ccccc2S(=O)(=O)NC(=O)OCCC(C)C)cc1F` reads 11 nM; that for `CCCc1nc2ccc(NC(=O)NC(C)C)cc2c(=O)n1Cc1ccc(-c2ccccc2S(=O)(=O)NC(=O)c2ccc(CC)cc2F)cc1F`, 4.4 nM.
On the same count and under the same terms, to `Cc1nc2ccc(NC(=O)N(C)C)cc2c(=O)n1Cc1ccc(-c2ccccc2S(=O)(=O)NC(=O)OCCC2CC2)cc1F` belongs 12 nM; to `CCc1nc2ccc(NC(=O)c3ccccn3)cc2c(=O)n1Cc1ccc(-c2ccccc2S(=O)(=O)NC(=O)OCCC(C)C)cc1F`, 37 nM.

A further assay concerns the target T3, Type-1 angiotensin II receptor (Oryctolagus cuniculus, UniProt P34976).
T3 sequence (P34976 whole entry): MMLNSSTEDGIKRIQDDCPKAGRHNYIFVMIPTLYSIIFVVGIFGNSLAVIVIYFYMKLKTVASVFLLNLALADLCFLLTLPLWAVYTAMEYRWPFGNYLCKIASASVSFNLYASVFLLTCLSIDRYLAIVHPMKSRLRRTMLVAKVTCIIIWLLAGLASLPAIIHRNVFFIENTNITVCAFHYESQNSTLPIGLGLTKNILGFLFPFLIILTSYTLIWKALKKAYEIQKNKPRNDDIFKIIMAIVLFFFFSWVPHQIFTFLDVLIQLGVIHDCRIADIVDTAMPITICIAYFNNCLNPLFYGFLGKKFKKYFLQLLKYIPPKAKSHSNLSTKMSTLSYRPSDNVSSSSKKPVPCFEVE
In words: […] inhibitory concentration against Angiotensin II receptor, type 1 of rabbit aorta membrane.
Compound `CCc1nc2ccc(NC(=O)N(C)C(C)C)cc2c(=O)n1Cc1ccc(-c2ccccc2S(=O)(=O)NC(=O)OCC=C(C)C)cc1F` registered an IC50 of 0.77 nM. In other words, the sub-nanomolar range.
The same measure, in the same setting: the result for `Cc1nc2ccc(NC(=O)NC(C)C)cc2c(=O)n1Cc1ccc(-c2ccccc2S(=O)(=O)NC(=O)OCCC(C)C)cc1F` reads 1.2 nM.
On the same count and under the same terms, the result for `CCCc1nc2ccc(NC(=O)NC(C)C)cc2c(=O)n1Cc1ccc(-c2ccccc2S(=O)(=O)NC(=O)c2ccc(CC)cc2F)cc1F` reads 0.2 nM.
Still for that read-out and setting: the result for `Cc1nc2ccc(NC(=O)N(C)C)cc2c(=O)n1Cc1ccc(-c2ccccc2S(=O)(=O)NC(=O)OCCC2CC2)cc1F` reads 2.3 nM; that for `CCc1nc2ccc(NC(=O)c3ccccn3)cc2c(=O)n1Cc1ccc(-c2ccccc2S(=O)(=O)NC(=O)OCCC(C)C)cc1F`, 2.3 nM.

The next assay is filed under the species Oryctolagus cuniculus. In words: Ratio of inhibitory concentration against AT2 receptor of rat midbrain to AT1 receptor of rabbit aorta.
With `CCc1nc2ccc(NC(=O)N(C)C(C)C)cc2c(=O)n1Cc1ccc(-c2ccccc2S(=O)(=O)NC(=O)OCC=C(C)C)cc1F`, the Ratio is 0.97.
The same measure, in the same setting: the result for `Cc1nc2ccc(NC(=O)NC(C)C)cc2c(=O)n1Cc1ccc(-c2ccccc2S(=O)(=O)NC(=O)OCCC(C)C)cc1F` reads 0.59; that for `CCCc1nc2ccc(NC(=O)NC(C)C)cc2c(=O)n1Cc1ccc(-c2ccccc2S(=O)(=O)NC(=O)c2ccc(CC)cc2F)cc1F`, 1.4; that for `Cc1nc2ccc(NC(=O)N(C)C)cc2c(=O)n1Cc1ccc(-c2ccccc2S(=O)(=O)NC(=O)OCCC2CC2)cc1F`, 3.3.
`CCc1nc2ccc(NC(=O)c3ccccn3)cc2c(=O)n1Cc1ccc(-c2ccccc2S(=O)(=O)NC(=O)OCCC(C)C)cc1F`: the Ratio stood at 0.79.

For the next assay, the target named is T1, Type-2 angiotensin II receptor. In words: […] inhibitory concentration against Angiotensin II, type 2 of rat midbrain membrane.
For the compound `CCc1nc2ccc(NC(=O)N(C)C(C)C)cc2c(=O)n1Cc1ccc(-c2ccccc2S(=O)(=O)NC(=O)OCC=C(C)C)cc1F`, the concentration for half-maximal inhibition (IC50) is 0.75 nM.
The same measure, in the same setting: to `Cc1nc2ccc(NC(=O)NC(C)C)cc2c(=O)n1Cc1ccc(-c2ccccc2S(=O)(=O)NC(=O)OCCC(C)C)cc1F` belongs 0.7 nM; to `CCCc1nc2ccc(NC(=O)NC(C)C)cc2c(=O)n1Cc1ccc(-c2ccccc2S(=O)(=O)NC(=O)c2ccc(CC)cc2F)cc1F`, 0.28 nM.
The compound `Cc1nc2ccc(NC(=O)N(C)C)cc2c(=O)n1Cc1ccc(-c2ccccc2S(=O)(=O)NC(=O)OCCC2CC2)cc1F` had a 50% inhibitory concentration (IC50) of 6.6 nM.
Still for that read-out and setting: the result for `CCc1nc2ccc(NC(=O)c3ccccn3)cc2c(=O)n1Cc1ccc(-c2ccccc2S(=O)(=O)NC(=O)OCCC(C)C)cc1F` reads 1.8 nM.

For another assay, the target named is T4, Type-1 angiotensin II receptor (Homo sapiens, UniProt P30556).
T4 sequence (P30556 whole entry): T3 sequence (P34976 whole entry) with M2I, A49V, V254I, V270I, H272R, K311R, S349T, V353A
In words: […] inhibitory concentration against Angiotensin II receptor, type 1 of human adrenal membrane.
As for `CCc1nc2ccc(NC(=O)N(C)C(C)C)cc2c(=O)n1Cc1ccc(-c2ccccc2S(=O)(=O)NC(=O)OCC=C(C)C)cc1F`, the 50% inhibitory concentration (IC50) was determined as 14.7 nM.
`Cc1nc2ccc(NC(=O)NC(C)C)cc2c(=O)n1Cc1ccc(-c2ccccc2S(=O)(=O)NC(=O)OCCC(C)C)cc1F` had a concentration for half-maximal inhibition (IC50) of 15 nM.
On the same count and under the same terms, the result for `CCCc1nc2ccc(NC(=O)NC(C)C)cc2c(=O)n1Cc1ccc(-c2ccccc2S(=O)(=O)NC(=O)c2ccc(CC)cc2F)cc1F` reads 0.84 nM; that for `Cc1nc2ccc(NC(=O)N(C)C)cc2c(=O)n1Cc1ccc(-c2ccccc2S(=O)(=O)NC(=O)OCCC2CC2)cc1F`, 12 nM.
The same measure, in the same setting: the result for `CCc1nc2ccc(NC(=O)c3ccccn3)cc2c(=O)n1Cc1ccc(-c2ccccc2S(=O)(=O)NC(=O)OCCC(C)C)cc1F` reads 85 nM.

A further assay deals with T5, Angiotensin II receptor (AT-1) type-1 (Rattus norvegicus, UniProt P29089+P25095).
T5 sequence (P29089 whole entry): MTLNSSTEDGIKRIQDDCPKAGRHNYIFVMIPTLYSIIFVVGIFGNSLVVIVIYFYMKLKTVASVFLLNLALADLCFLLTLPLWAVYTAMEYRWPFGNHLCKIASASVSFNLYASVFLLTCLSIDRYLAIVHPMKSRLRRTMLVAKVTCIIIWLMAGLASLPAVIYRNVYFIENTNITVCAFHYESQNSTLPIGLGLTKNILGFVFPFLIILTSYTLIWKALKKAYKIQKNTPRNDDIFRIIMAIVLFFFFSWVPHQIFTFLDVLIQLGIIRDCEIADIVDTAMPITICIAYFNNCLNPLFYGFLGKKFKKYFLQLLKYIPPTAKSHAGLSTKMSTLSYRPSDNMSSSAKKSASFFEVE
T5 sequence (P25095 whole entry): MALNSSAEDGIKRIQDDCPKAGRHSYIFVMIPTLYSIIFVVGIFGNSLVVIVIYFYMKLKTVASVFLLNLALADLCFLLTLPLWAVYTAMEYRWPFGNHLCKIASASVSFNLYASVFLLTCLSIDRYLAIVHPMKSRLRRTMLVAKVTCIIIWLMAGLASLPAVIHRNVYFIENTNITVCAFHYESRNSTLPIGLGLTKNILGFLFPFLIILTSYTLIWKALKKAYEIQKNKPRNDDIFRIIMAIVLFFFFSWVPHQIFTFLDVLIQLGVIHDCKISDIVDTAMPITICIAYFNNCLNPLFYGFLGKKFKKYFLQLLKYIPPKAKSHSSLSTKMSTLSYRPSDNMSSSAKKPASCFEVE
In words: […] inhibitory concentration against Angiotensin II receptor, type 1 of rat adrenal membrane.
Turning to `CCc1nc2ccc(NC(=O)N(C)C(C)C)cc2c(=O)n1Cc1ccc(-c2ccccc2S(=O)(=O)NC(=O)OCC=C(C)C)cc1F`, the concentration for half-maximal inhibition (IC50) was 0.39 nM.
As to `Cc1nc2ccc(NC(=O)NC(C)C)cc2c(=O)n1Cc1ccc(-c2ccccc2S(=O)(=O)NC(=O)OCCC(C)C)cc1F`, the concentration for half-maximal inhibition (IC50) is 0.5 nM.
Same read-out and setting: to `CCCc1nc2ccc(NC(=O)NC(C)C)cc2c(=O)n1Cc1ccc(-c2ccccc2S(=O)(=O)NC(=O)c2ccc(CC)cc2F)cc1F` belongs 0.11 nM.
Same read-out and setting: to `Cc1nc2ccc(NC(=O)N(C)C)cc2c(=O)n1Cc1ccc(-c2ccccc2S(=O)(=O)NC(=O)OCCC2CC2)cc1F` belongs 2.3 nM.
`CCc1nc2ccc(NC(=O)c3ccccn3)cc2c(=O)n1Cc1ccc(-c2ccccc2S(=O)(=O)NC(=O)OCCC(C)C)cc1F` had a concentration for half-maximal inhibition (IC50) of 1.3 nM. Compared with the last compound, the IC50 is about 1.8-fold lower.
